Consider 8 compounds from article PMC9532970, “Rational design of photosynthetic reaction center protein maquettes” (Frontiers in Molecular Biosciences, 2022).

pKd: −log10 of the molar value. Where two headings read alike, the source gives them in different places.

In test [1] the target is RC maquette-heme B complex. Briefly: UV/vis pigment binding titration into RC maquette with heme B bound. The settings on record: RC maquette (His124) with heme B bound to the acceptor site; for pKd: read-out: Dissociation constant (KD). As to the method:
(§1) Ultraviolet/visible absorbance spectroscopy (UV/vis) was carried out on a Varian Cary-50 spectrophotometer. Cofactor binding titrations were performed at room temperature using 1 ml samples of ∼1 μM RC maquette in quartz cuvettes. Protein concentrations were calculated by assuming that Trp and Tyr residues have extinction coefficients at 280 nm (ε280nm) of 5,500 M^−1 cm^−1 and 1,490 M^−1 cm^−1, respectively. Samples of Zn 5-phenyl 15-(p-carboxyphenyl) porphyrin (ZnPCP) and Zn Newkome porphyrin were provided by Tatiana Esipova from the research group of Sergei Vinogradov ([Kodali et al., 2017]). The Zn chlorins SE370 and SE375 were produced by the laboratory of Jonathan Lindsey following previously established methods ([Aravindu et al., 2013]; [Kodali et al., 2017]). Other tetrapyrroles were purchased from Frontier Scientific, Inc. Stock solutions of water-soluble cofactors were prepared in water, and insoluble tetrapyrroles were prepared in dimethyl sulfoxide stock solutions of 100–200 µM concentration. Heme B stock concentrations were measured by hemochrome assay ([Berry and Trumpower, 1987]). Stock concentrations of other tetrapyrrole cofactors were estimated by mass measurements.
(§2) For each titration, a cofactor stock solution was titrated into the protein solution in the cuvette. After each addition of cofactor, at least 10 min were allowed for equilibration before collecting a UV/vis spectrum. Cofactor was typically added in steps of 0.1 equivalents of cofactor per protein until after the binding capacity of the protein appeared to have been reached, at which point 0.2 equivalents of cofactor per protein were added at a time. Binding titrations continued until at total of at least three equivalents of cofactor per protein had been added. To determine dissociation constants, we used the following one-site binding equation: A=ctotɛfree+(ɛbound−ɛfree)KD+Ptot+ctot−(KD+Ptot+ctot)^2−4Ptotctot/2+b (2)
(§3) In Eq. 2, A represents the total absorbance at a given wavelength, c tot is the total cofactor concentration, P tot is the total protein concentration, K D is the dissociation constant, εfree is the extinction coefficient of unbound cofactor in solution, εbound is the extinction coefficient of protein-bound cofactor, and b is the absorbance of the sample when c tot is zero.

The next test concerns the target RC maquette. The experiment in a line: UV/vis cofactor binding titration into RC maquette (no heme pre-bound). The settings on record: for pKd: electron acceptor titrated into 1.1-4.4 µM RC maquette, pH 7.0, fit to one-site binding equation (Eq. 2), read-out: dissociation constant (KD). As to the method: as §1, §2, §3
A further test addresses DH maquette. The experiment in a line: UV/vis heme binding titration into DH maquette. The settings on record: ferric heme B into 0.5 µM DH maquette, 50 mM NaCl, 10 mM MOPS pH 7.5; read-out: dissociation constant (KD).
The next test has as its target cyt. b 562. The settings on record: read-out: KD of CoPPIX for cyt. b 562, cited from earlier work.

For Zn chlorin e6 [Zn chlorin e6 (ZnCe6)], the “Dissociation constant (KD), result in words” value (from here on “Dissociation constant (KD)”) in test [1] is on record as “no binding detected”.
For the compound `CC(=O)C1=C(C)C2=Cc3c(C(C)=O)c(C)c4[n]3[Fe][n]3c(c(C)c(CCC(=O)O)c3=CC3=NC(=C4)C(C)=C3CCC(=O)O)=CC1=N2` [Fe(III)-DADPIX, Fe(III) 2,4-diacetyl deuteroporphyrin IX], the pKd (commonly the negative decadic logarithm of the Kd, by convention in mol/L) on RC maquette is over 8.00.
Take `C=CC1=C(C)c2cc3[n-]c(cc4[n-]c(cc5nc(cc1n2)C(C)=C5C=C)c(C)c4CCC(=O)O)c(CCC(=O)O)c3C.[Fe+2]` [heme B]: the pKd at RC maquette and on DH maquette was over 8.00 in each case.
With `C=Cc1c(C)c2cc3[nH]c(cc4nc(cc5nc(cc1[nH]2)C(C)=C5CCC(=O)[O-])C(CCC(=O)[O-])=C4C)c(C)c3C=C.[Co+2]` [CoPPIX, Co(III) protoporphyrin IX], in the test on RC maquette (KD 250 nM vs <10 nM), the “CoPPIX affinity relative to heme B affinity of the RC maquette (times weaker)” value was “about 25 times”. For the same compound, the pKd was 6.60 at RC maquette; 7.35 at cyt. b 562 (lower end of literature range, ref Alcala-Torano et al., 2021); 5.05 at cyt. b 562 (upper end of literature range, ref Sommer et al., 2016).
Consider `C=CC1=C(C)c2cc3[nH]c(cc4[nH]c(cc5nc(cc1n2)C(C)=C5C=C)c(C)c4CCC(=O)O)c(CCC(=O)O)c3C` [Zn protoporphyrin IX (ZnPPIX), Zn protoporphyrin IX], for which the pKd in test [1] was 5.70.
As for `O=C(O)c1ccc(-c2c3nc(c(-c4ccc(C(=O)O)cc4)c4ccc([nH]4)c(-c4ccc(C(=O)O)cc4)c4nc(c(-c5ccc(C(=O)O)cc5)c5ccc2[nH]5)C=C4)C=C3)cc1` [Zn meso-tetra(4-carboxyphenyl) prophyrin], the pKd in test [1] is 5.30.
In the case of `C1=Cc2nc1c(-c1ccccc1)c1ccc([n-]1)c(-c1ccncc1)c1nc(c(-c3ccccc3)c3ccc([n-]3)c2-c2ccncc2)C=C1.[Zn+2]` [Zn meso-di(4-pyridyl)-diphenyl porphyrin], the “Dissociation constant (KD)” value in test [1] is “no binding detected”.
With `CCC1=C(C)c2cc3[n-]c(cc4[n-]c(cc5nc(cc1n2)C(C)=C5CC)c(C)c4CCC(=O)O)c(CCC(=O)O)c3C.[Zn+2]` [Zn mesoporphyrin IX (ZnMPIX), Zn mesoporphyrin IX], in test [1], the “Dissociation constant (KD)” value is given as “no binding detected”.
